Experimental data: patent US9493468B2, “Antifungal 5,6-dihydro-4H-pyrrolo[1,2-a][1,4]benzo-diazepines and 6H-pyrrolo[1,2-a][1,4]benzodiazepines substituted with heterocyclic derivatives” (Janssen Pharmaceutica NV, priority 2011, dated 2016)

Legend:
Format in all cases: cell-based
[1] = system: Microsporum canis; assay: Antifungal activity in vitro, resazurin growth inhibition: Microsporum canis (B68128)
Procedure, shortened: (§1)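 Broth microdilution: RPMI-1640/L-Gln/2% glucose, MOPS pH 7.0±0.1; 10^3 cfu/well; top concentration 64 μM, 2- or 4-fold steps. Dermatophytes at 27° C., one week or more. Resazurin 0.005% (w/v) added, fluorescence 550/590 nm.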

[2] = system: Trichophyton mentagrophytes; assay: Antifungal activity in vitro, resazurin growth inhibition: Trichophyton mentagrophytes (B70554)
Procedure, shortened: as §1

[3] = system: Trichophyton rubrum; assay: Antifungal activity in vitro, resazurin growth inhibition: Trichophyton rubrum (B68183)
Procedure, shortened: as §1

[4] = system: Sporothrix schenkii; assay: Antifungal activity in vitro, resazurin growth inhibition: Sporothrix schenkii (B62482)
Procedure, shortened: as §1

[5] = system: Aspergillus fumigatus; assay: Antifungal activity in vitro, resazurin growth inhibition: Aspergillus fumigatus (B42928)
Procedure, shortened: as §1

[6] = system: Candida parapsilosis; assay: Antifungal activity in vitro, resazurin growth inhibition: Candida parapsilosis (B66126)
Procedure, shortened: as §1

[7] = system: Cryptococcus neoformans; assay: Antifungal activity in vitro, resazurin growth inhibition: Cryptococcus neoformans (B66663)
Procedure, shortened: as §1

| SMILES | Inf. B: Microsporum canis B68128, pIC50 [1] | Inf. G: Trichophyton mentagrophytes B70554, pIC50 [2] | Inf. C: Trichophyton rubrum B68183, pIC50 [3] | Inf. A: Sporothrix schenkii B62482, pIC50 [4] | Inf. E: Aspergillus fumigatus B42928, pIC50 [5] | Inf. D: Candida parapsilosis B66126, pIC50 [6] | Inf. F: Cryptococcus neoformans B66663, pIC50 [7] |
| --- | --- | --- | --- | --- | --- | --- | --- |
| Cl.Fc1cccc2c1CNC(c1ccc(C(F)(F)F)nc1)c1cccn1-2 (racemic) [Compound 17] | 4.46 | <4.19 | 4.71 | <4.19 | <4.19 | <4.19 | 4.23 |
| Cl.Clc1ccc2oc(C3NCc4c(Cl)cccc4-n4cccc43)cc2c1 (racemic) [Compound 35] | 5.70 | 5.70 | 6.07 | <4.19 | <4.19 | <4.19 | <4.19 |
| CCc1csc(C2=NCc3c(Cl)cc(Cl)cc3-n3cccc32)n1 [Compound 69] | 4.71 | <4.19 | 5.09 | <4.19 | <4.19 | <4.19 | <4.19 |
| Cl.Clc1cccc2c1CNC(c1nc3ccccc3s1)c1cccn1-2 (racemic) [Compound 59] | 6.22 | 6.00 | 6.47 | 4.85 | <4.19 | <4.19 | <4.19 |
| Cc1cccc(C2NCc3c(Cl)cccc3-n3cccc32)n1 (racemic) [Compound 12] | <4.49 | <4.49 | 4.92 | 4.59 | <4.49 | <4.49 | 4.82 |
| Cl.Clc1cc(Cl)c2c(c1)-n1cccc1C(c1cc3ccccc3s1)NC2 (racemic) [Compound 56] | <4.19 | 4.48 | 5.71 | <4.19 | <4.19 | <4.19 | <4.19 |
| Clc1cccc2c1CN=C(c1nc3ccccc3s1)c1cccn1-2 [Compound 180] | 4.40 | 4.39 | 6.03 | <4.19 | <4.19 | <4.19 | <4.19 |
| CCc1ccc(C2NCc3c(Cl)cccc3-n3cccc32)cn1.Cl (racemic) [Compound 14] | 5.30 | 4.74 | 5.30 | <4.19 | <4.19 | <4.19 | 4.28 |
| Cc1nc2ccc(C3=NCc4c(Cl)cccc4-n4cccc43)cc2o1 [Compound 162] | 5.23 | 5.21 | 5.61 | 4.22 | 4.36 | <4.19 | 4.49 |
| Cc1cccc2oc(C3NCc4c(Cl)cccc4-n4cccc43)cc12.Cl (racemic) [Compound 36] | 5.19 | 5.21 | 5.10 | <4.19 | <4.19 | <4.19 | <4.19 |

Results, then the compound that gave them:

| Inf. B: Microsporum canis B68128, pIC50 [1] | Inf. G: Trichophyton mentagrophytes B70554, pIC50 [2] | Inf. C: Trichophyton rubrum B68183, pIC50 [3] | Inf. A: Sporothrix schenkii B62482, pIC50 [4] | Inf. E: Aspergillus fumigatus B42928, pIC50 [5] | Inf. D: Candida parapsilosis B66126, pIC50 [6] | Inf. F: Cryptococcus neoformans B66663, pIC50 [7] | SMILES |
| --- | --- | --- | --- | --- | --- | --- | --- |
| <4.19 | <4.19 | <4.19 | <4.19 | <4.19 | <4.19 | <4.19 | Fc1cc(F)c2c(c1)-n1cccc1C(c1ccc3occ(Cl)c3c1)=NC2 [Compound 154] |
| 4.87 | 4.83 | 5.99 | <4.49 | <4.49 | <4.49 | <4.49 | Cc1cc(C2=NCc3c(C)cccc3-n3cccc32)ccn1 [Compound 97] |
| 5.29 | 5.52 | 6.05 | <4.19 | 5.02 | <4.19 | 5.06 | Fc1cccc2c1CN=C(c1ccc3scnc3c1)c1cccn1-2 [Compound 189] |
| 5.42 | 5.33 | 6.19 | <4.19 | <4.19 | <4.19 | <4.19 | Fc1cccc2c1CN=C(c1ccc(C(F)(F)F)nc1)c1cccn1-2 [Compound 90] |
| <4.19 | <4.19 | 4.96 | <4.19 | 5.61 | <4.19 | <4.19 | Fc1cc(F)c2oc(C3=NCc4c(Cl)cc(Cl)cc4-n4cccc43)cc2c1 [Compound 129] |
| 5.18 | <4.19 | 6.02 | <4.19 | <4.19 | <4.19 | 5.07 | Cc1ccc2cc(C3=NCc4c(Cl)cccc4-n4cccc43)ccc2n1 [Compound 112] |
| 6.41 | <4.49 | 6.46 | <4.49 | <4.49 | <4.49 | <4.49 | Clc1cc2oc(C3=NCc4c(Cl)cccc4-n4cccc43)cc2cn1 [Compound 159] |
| 5.26 | 5.63 | 6.16 | <4.19 | 5.02 | <4.19 | <4.19 | CC(=O)c1ccc(C2=NCc3c(F)cccc3-n3cccc32)cn1 [Compound 93] |
| 4.21 | <4.19 | <4.19 | <4.19 | <4.19 | <4.19 | <4.19 | Cc1ncc(C2=NCc3c(Cl)cccc3-n3cccc32)cn1 [Compound 100] |
